Results published in ChEMBL document CHEMBL4028908, “The Discovery of 3-((4-Chloro-3-methoxyphenyl)amino)-1-((3R,4S)-4-cyanotetrahydro-2H-pyran-3-yl)-1H-pyrazole-4-carboxamide, a Highly Ligand Efficient and Efficacious Janus Kinase 1 Selective Inhibitor with Favorable Pharmacokinetic Properties” (J Med Chem, 2017).
Values after ≈ are worked out from the molar mass of the structure shown.

Assays:
[1] = Intrinsic clearance in human hepatocytes after 120 mins by LC-MS/MS analysis; format: ADME, cell-based, Hepatocyte; conditions: read-out: CLH
[2] = Intrinsic clearance in rat hepatocytes after 120 mins by LC-MS/MS analysis; format: ADME, cell-based, Hepatocyte; conditions: read-out: CLH
[3] = molecular target: T1, Tyrosine-protein kinase JAK3 (Homo sapiens, UniProt P52333)
T1 sequence (P52333 whole entry): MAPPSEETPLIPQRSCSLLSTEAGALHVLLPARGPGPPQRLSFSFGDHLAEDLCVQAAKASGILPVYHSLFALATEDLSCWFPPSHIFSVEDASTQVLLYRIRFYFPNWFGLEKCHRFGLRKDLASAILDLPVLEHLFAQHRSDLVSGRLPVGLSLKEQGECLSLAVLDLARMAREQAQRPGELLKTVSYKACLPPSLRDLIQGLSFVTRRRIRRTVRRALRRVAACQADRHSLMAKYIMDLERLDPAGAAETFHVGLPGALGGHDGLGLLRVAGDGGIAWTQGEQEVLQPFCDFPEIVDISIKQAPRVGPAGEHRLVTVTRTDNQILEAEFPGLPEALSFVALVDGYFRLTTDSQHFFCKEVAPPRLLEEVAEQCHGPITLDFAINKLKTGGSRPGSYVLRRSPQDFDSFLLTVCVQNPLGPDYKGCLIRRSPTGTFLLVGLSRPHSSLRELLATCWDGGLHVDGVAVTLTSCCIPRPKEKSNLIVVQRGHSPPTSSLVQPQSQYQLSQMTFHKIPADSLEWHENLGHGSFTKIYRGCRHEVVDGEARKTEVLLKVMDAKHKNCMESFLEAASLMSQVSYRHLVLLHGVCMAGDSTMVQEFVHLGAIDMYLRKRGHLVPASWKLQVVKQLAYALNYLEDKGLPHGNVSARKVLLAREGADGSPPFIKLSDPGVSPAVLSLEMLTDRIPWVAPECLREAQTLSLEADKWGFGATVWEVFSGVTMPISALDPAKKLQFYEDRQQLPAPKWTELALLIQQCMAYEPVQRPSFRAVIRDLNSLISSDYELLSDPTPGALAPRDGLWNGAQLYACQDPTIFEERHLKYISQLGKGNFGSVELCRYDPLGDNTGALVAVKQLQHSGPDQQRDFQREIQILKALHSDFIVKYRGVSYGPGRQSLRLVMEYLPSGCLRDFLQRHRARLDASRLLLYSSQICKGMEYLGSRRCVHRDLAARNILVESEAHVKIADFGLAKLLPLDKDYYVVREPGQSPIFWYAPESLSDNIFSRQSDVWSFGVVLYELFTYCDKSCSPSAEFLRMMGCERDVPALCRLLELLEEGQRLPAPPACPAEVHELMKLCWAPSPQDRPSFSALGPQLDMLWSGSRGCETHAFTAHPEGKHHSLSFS

[4] = Lipophilicity, log D of the compound at 100 uM at pH 7 by HPLC/DAD analysis; format: physicochemical; conditions: buffer
Homo sapiens = species on record: Homo sapiens; test: Selectivity ratio of IC50 for GST-tagged recombinant human JAK2 catalytic domain to IC50 for GST-tagged recombinant human JAK1 catalytic domain
[5] = molecular target: T2, Tyrosine-protein kinase JAK2 (Homo sapiens, UniProt O60674)
[6] = molecular target: T3, Tyrosine-protein kinase JAK1 (Homo sapiens, UniProt P23458)
[7] = molecular target: Non-receptor tyrosine-protein kinase TYK2 (Homo sapiens, UniProt P29597)
[8] = molecular target: T3, Tyrosine-protein kinase JAK1; remark: listed apart in the source
[9] = molecular target: T2, Tyrosine-protein kinase JAK2; remark: listed apart in the source
[10] = Oral bioavailability in rat at 1 mg/kg; format: ADME, organism-based; conditions: in vivo
[11] = Solubility of the compound in FaSSIF solution at 100 uM after overnight incubation by UPLC/DAD analysis; format: physicochemical
[12] = molecular target: Voltage-gated inwardly rectifying potassium channel KCNH2 (Homo sapiens, UniProt Q12809)
[13] = Plasma clearance in rat at 0.5 mg/kg, iv or 1 mg/kg, po; format: ADME, organism-based
Rattus norvegicus = test: Unbound clearance in rat at 0.5 mg/kg, iv or 1 mg/kg, po; format: ADME, organism-based; conditions: in vivo

T3 sequence (P23458 whole entry): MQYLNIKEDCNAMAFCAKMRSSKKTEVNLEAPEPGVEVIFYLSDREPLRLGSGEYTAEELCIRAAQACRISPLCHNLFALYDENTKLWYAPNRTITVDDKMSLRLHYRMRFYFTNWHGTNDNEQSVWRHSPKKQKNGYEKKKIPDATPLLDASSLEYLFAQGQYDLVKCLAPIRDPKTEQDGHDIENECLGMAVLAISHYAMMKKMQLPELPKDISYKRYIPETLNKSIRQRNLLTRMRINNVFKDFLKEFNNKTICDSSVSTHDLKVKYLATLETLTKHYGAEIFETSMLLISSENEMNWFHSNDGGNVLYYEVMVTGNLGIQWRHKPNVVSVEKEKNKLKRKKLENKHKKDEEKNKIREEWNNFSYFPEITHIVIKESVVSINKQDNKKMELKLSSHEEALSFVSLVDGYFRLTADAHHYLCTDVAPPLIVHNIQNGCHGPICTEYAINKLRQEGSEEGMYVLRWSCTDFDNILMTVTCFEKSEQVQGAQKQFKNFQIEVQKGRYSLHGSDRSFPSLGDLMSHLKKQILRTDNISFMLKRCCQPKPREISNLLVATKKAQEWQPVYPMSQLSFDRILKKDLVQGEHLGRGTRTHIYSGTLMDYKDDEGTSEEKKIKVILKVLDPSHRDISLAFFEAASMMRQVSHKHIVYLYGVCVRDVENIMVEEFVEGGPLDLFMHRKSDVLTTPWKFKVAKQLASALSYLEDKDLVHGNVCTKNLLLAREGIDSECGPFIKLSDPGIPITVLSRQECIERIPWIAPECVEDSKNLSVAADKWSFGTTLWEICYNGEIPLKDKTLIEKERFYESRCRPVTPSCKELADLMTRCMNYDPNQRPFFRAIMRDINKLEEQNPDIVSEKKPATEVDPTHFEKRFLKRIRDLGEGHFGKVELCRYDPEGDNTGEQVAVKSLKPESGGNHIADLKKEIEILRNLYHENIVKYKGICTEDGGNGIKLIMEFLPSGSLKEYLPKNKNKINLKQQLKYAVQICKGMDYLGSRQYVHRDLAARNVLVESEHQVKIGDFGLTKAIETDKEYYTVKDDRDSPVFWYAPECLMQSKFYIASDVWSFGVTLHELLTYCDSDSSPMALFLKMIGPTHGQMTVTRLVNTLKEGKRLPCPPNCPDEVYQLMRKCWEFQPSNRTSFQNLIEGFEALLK
T2 sequence (O60674 whole entry): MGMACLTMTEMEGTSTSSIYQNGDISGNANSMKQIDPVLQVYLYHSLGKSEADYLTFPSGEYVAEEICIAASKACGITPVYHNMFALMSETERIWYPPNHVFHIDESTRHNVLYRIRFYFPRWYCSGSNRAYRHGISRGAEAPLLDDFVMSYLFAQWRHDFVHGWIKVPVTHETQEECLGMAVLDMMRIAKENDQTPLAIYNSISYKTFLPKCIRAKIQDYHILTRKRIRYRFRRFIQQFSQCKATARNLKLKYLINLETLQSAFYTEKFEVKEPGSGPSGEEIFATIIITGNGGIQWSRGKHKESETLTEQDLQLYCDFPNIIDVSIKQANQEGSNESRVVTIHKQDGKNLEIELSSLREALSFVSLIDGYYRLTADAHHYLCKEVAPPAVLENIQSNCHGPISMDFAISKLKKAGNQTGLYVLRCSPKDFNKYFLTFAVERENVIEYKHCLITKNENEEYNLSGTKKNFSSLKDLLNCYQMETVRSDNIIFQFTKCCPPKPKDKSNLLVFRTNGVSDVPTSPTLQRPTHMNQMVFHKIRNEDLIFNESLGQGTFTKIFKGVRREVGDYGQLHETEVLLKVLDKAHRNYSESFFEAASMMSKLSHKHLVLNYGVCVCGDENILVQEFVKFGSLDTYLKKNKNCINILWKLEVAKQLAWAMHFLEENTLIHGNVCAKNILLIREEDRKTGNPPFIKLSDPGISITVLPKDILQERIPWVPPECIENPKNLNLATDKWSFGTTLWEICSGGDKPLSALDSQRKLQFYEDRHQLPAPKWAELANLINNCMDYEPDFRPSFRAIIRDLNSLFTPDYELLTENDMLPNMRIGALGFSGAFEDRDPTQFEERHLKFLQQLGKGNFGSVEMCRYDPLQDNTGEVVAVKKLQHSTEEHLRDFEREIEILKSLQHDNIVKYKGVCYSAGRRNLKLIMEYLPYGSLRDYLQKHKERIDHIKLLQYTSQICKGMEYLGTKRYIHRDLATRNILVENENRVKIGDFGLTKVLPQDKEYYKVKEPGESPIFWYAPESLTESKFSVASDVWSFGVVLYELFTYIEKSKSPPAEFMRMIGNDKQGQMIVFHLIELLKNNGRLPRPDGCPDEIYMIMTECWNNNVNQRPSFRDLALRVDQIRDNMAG
Voltage-gated inwardly rectifying potassium channel KCNH2, sequence (Q12809 whole entry): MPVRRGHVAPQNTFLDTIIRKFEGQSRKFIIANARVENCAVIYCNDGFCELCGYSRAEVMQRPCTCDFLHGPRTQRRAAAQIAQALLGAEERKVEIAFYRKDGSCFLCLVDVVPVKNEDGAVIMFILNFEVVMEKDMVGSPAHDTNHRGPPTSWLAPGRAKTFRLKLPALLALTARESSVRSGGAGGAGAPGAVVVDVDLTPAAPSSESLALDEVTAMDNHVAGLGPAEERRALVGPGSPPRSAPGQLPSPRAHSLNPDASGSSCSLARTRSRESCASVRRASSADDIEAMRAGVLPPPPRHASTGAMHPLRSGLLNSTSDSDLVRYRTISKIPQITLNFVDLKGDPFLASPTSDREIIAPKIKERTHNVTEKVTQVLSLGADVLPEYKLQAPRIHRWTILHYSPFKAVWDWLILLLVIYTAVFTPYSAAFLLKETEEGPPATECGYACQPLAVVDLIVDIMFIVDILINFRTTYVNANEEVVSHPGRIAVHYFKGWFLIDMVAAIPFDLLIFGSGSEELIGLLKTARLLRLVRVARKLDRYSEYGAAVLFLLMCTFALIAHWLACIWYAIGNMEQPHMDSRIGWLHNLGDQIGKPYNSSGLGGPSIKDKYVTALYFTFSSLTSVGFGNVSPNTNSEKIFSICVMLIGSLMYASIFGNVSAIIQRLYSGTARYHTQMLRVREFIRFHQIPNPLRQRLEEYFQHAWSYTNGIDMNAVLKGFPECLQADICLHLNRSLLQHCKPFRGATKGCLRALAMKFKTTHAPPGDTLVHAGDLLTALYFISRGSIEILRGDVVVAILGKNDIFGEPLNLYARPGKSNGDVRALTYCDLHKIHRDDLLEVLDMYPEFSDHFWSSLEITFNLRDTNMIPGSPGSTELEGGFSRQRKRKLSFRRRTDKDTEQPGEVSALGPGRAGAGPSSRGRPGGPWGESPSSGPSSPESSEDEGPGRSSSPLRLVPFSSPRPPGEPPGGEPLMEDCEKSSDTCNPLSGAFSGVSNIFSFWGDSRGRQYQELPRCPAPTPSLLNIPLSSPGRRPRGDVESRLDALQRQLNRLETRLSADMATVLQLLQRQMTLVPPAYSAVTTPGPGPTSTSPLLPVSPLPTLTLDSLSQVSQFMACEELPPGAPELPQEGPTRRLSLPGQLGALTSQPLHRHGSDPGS
Non-receptor tyrosine-protein kinase TYK2, sequence (P29597 whole entry): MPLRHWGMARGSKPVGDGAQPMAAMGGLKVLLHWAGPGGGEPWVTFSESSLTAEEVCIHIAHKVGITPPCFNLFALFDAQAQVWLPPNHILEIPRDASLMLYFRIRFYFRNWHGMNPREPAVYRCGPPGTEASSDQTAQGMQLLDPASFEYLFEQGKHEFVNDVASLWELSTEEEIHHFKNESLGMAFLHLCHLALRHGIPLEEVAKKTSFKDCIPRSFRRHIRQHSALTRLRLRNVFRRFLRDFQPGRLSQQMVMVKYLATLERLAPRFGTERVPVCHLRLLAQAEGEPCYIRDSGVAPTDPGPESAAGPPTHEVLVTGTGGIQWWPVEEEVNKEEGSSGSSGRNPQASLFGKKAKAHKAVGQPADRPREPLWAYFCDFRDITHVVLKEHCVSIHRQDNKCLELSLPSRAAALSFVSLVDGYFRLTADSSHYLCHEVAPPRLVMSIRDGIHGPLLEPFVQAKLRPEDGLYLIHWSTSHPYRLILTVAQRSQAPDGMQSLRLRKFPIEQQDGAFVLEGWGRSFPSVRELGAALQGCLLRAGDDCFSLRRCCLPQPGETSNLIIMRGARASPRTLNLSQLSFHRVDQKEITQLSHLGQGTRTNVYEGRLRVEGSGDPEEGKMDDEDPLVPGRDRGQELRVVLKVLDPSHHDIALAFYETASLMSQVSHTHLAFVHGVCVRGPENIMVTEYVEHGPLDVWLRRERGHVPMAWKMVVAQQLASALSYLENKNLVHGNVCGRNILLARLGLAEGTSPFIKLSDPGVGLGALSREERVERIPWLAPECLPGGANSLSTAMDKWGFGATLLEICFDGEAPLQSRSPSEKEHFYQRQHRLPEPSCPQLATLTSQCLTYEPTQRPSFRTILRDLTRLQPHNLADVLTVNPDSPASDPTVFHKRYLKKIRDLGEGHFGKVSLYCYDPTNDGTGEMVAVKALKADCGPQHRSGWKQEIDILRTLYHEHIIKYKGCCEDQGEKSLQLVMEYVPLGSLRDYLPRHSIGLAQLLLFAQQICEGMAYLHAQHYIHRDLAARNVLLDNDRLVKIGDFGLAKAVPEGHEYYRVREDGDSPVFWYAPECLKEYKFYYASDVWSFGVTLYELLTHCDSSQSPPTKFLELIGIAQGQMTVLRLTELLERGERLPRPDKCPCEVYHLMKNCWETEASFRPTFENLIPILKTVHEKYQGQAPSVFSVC

SMILES | CLint scaled [1] | CLint scaled [2] | IC50 [3] | logD at 100 µM [4] | Ratio IC50 (Homo sapiens) | IC50 [5] | IC50 [6] | IC50 [7] | IC50 [8] | IC50 [9] | bioavailability [10] | solubility at 100 µM [11] | IC50 [12] | clearance [13] | CL free (Rattus norvegicus)
COc1ccnc2c(F)cc(Nc3nn([C@H]4COCC[C@@H]4C#N)cc3C(N)=O)cc12 | 15 mL/min/kg | 15 mL/min/kg | > 1500 nM | 1.4 | 53 | 10 nM | 0.19 nM | 8 nM | 24 nM | 2110 nM |  |  |  |  | 
Cn1cc(-c2ccc(Nc3nn([C@H]4COCC[C@@H]4C#N)cc3C(N)=O)cc2)cn1 | < 20 mL/min/kg | 55 mL/min/kg | 91 nM | 1.48 | 23 | 0.5 nM | 0.02 nM | 0.2 nM | 6 nM | 39 nM | 18% | 42 µM (≈ 16.4 µg/mL) | > 60000 nM |  | 
N#Cc1ccc(Nc2nn([C@H]3COCC[C@@H]3C#N)cc2C(N)=O)cc1C#N |  |  | 656 nM | 1.99 | 6 | 5 nM | 0.9 nM | 11 nM | 77 nM | 1190 nM |  |  |  |  | 
N#C[C@H]1CCCC[C@@H]1n1cc(C(N)=O)c(Nc2ccccc2)n1 | 25 mL/min/kg | 160 mL/min/kg |  | 2.66 |  |  |  |  |  |  |  |  | > 60000 nM | 484 mL/min/kg | 12100 mL/min/kg
COc1cc(Nc2nn([C@H]3COCC[C@@H]3C#N)cc2C(N)=O)ccc1C#N | 24 mL/min/kg | < 40 mL/min/kg | 391 nM | 1.87 | 46 | 3.2 nM |  | 9 nM | 19 nM | 430 nM | 2% |  |  |  | 
N#C[C@H]1CCOC[C@@H]1n1cc(C(N)=O)c(Nc2ccnc(F)c2)n1 | 1.5 mL/min/kg | 5 mL/min/kg | 511 nM | 1.18 |  |  |  | 3 nM |  |  | 19% | 159 µM (≈ 52.5 µg/mL) | > 60000 nM |  | 
N#Cc1ccc(Nc2nn([C@H]3COCC[C@@H]3C#N)cc2C(N)=O)cc1Cl |  |  | 556 nM | 2.18 | 7 | 2.7 nM | 0.4 nM | 4 nM | 26 nM | 261 nM | 23% |  |  |  | 
C[C@@H]1NS(=O)(=O)c2ccc(Nc3nn([C@H]4COCC[C@@H]4C#N)cc3C(N)=O)cc21 | 62 mL/min/kg | 62 mL/min/kg | 315 nM | 3.15 | 50 | 2 nM | 0.04 nM | 1.7 nM | 16 nM | 224 nM |  |  |  |  | 
N#C[C@H]1CCOC[C@@H]1n1cc(C(N)=O)c(Nc2ccc([C@H](O)C(F)(F)F)cc2)n1 | < 20 mL/min/kg | < 40 mL/min/kg | 100 nM | 1.93 |  |  |  | 0.4 nM |  |  | 9% |  | > 60000 nM |  | 
N#Cc1ccc(Nc2nn([C@H]3COCC[C@@H]3C#N)cc2C(N)=O)cc1C1CC1 |  |  | > 1500 nM | 2.34 | 11 | 16 nM | 1.4 nM | 40 nM | 72 nM | 744 nM |  |  |  |  | 
N#C[C@H]1CCOC[C@@H]1n1cc(C(N)=O)c(Nc2cc(F)c3nccc(Cl)c3c2)n1 | 25 mL/min/kg | 52 mL/min/kg | 1010 nM | 1.81 | 29 | 7 nM | 0.24 nM | 12 nM | 14 nM | 608 nM | 19% |  |  |  | 
CN(C)c1cc(Nc2nn([C@H]3COCC[C@@H]3C#N)cc2C(N)=O)cc(F)n1 | 4 mL/min/kg | 9 mL/min/kg | 701 nM | 2.07 | 19 | 3.4 nM | 0.18 nM | 13 nM | 28 nM | 530 nM | 4% |  |  |  | 
N#C[C@H]1CCOC[C@@H]1n1cc(C(N)=O)c(Nc2ccc(C3CC3)cc2)n1 | 41 mL/min/kg | 262 mL/min/kg | 280 nM | 2.58 | 4 | 1.9 nM | 0.5 nM | 3.9 nM | 37 nM | 200 nM |  |  | 35000 nM |  | 
CN([C@H]1CC[C@H](n2cc(C(N)=O)c(Nc3ccc(Cl)cc3)n2)[C@@H](C#N)C1)C1(C)COC1 | 32 mL/min/kg | 80 mL/min/kg |  |  |  |  |  |  |  |  |  |  | 46000 nM |  | 
Cc1ncnc2ccc(Nc3nn([C@H]4COCC[C@@H]4C#N)cc3C(N)=O)cc12 |  |  | 783 nM | 1.02 | 43 | 7 nM | 0.16 nM | 14 nM | 24 nM | 1630 nM |  |  |  |  | 
COc1cc(Nc2nn([C@H]3COCC[C@@H]3C#N)cc2C(N)=O)cc(F)n1 [ATINVICITINIB] | 2 mL/min/kg | 14 mL/min/kg |  | 1.89 |  |  | 0.4 nM | 13 nM | 39 nM |  | 49% |  |  |  | 
N#C[C@H]1CCOC[C@@H]1n1cc(C(N)=O)c(Nc2ccccc2)n1 | 6 mL/min/kg | 70 mL/min/kg | 361 nM | 2.08 |  |  | 0.4 nM | 2.9 nM | 33 nM |  | 79% | 18 µM (≈ 5.6 µg/mL) | > 60000 nM | 20 mL/min/kg | 110 mL/min/kg
N#C[C@H]1CCOC[C@@H]1n1cc(C(N)=O)c(Nc2ccc(F)cc2)n1 | < 20 mL/min/kg | < 40 mL/min/kg | 304 nM | 2.18 | 7 | 2 nM | 0.3 nM | 1.8 nM | 31 nM | 334 nM | 40% | 42 µM (≈ 13.8 µg/mL) | 40000 nM |  | 
N#C[C@H]1C[C@@H](O)CC[C@@H]1n1cc(C(N)=O)c(Nc2ccc(Cl)cc2)n1 |  |  |  |  |  |  |  |  |  |  | 10% |  | 26000 nM |  | 
N#C[C@H]1CCOC[C@@H]1n1cc(C(N)=O)c(Nc2ccc(Cl)cc2)n1 | 85 mL/min/kg | 9 mL/min/kg | 256 nM | 2.57 |  |  |  | 2 nM |  |  | 71% | 39 µM (≈ 13.5 µg/mL) | 40000 nM |  | 
N#C[C@H]1CCOC[C@@H]1n1cc(C(N)=O)c(Nc2ccc(OC(F)F)cc2)n1 | 28 mL/min/kg | 59 mL/min/kg | 196 nM | 2.27 | 11 | 0.8 nM | 0.1 nM | 0.7 nM | 5 nM | 54 nM | 42% |  | 25000 nM |  | 
N#C[C@H]1CCOC[C@@H]1n1cc(C(N)=O)c(Nc2ccc(-n3ccnn3)cc2)n1 | 2.5 mL/min/kg | 4.8 mL/min/kg | 116 nM | 1 |  | 0.7 nM | 0.06 nM | 0.5 nM | 23 nM | 254 nM | 3% | 96 µM (≈ 36.3 µg/mL) |  |  | 
